Values of other authors as cited in patent publication EP4585059A1, “EFFERVESCENT POUCHED PRODUCT” (Nicoventures Trading Limited, priority 2024, dated 2025).

Key:
[1] = Values obtained from PubChem or calculated
[2] = water / aqueous environment (e.g., saliva)

Molecule | log(P)* [1] | solubility in water [2]
CC(C)[C@@H]1CC[C@@H](C)C[C@H]1OC(=O)CCC(=O)O [monomenthyl succinate] | 3 | –
ethyl benzoic acid | 2.9 | –
COC(=O)/C=C/C(C)=C\C=C\C(C)=C\C=C\C=C(C)\C=C\C=C(C)\C=C\C(=O)O [bixin, (2E,4E,6E,8E,10E,12E,14E,16Z,18E)-20-methoxy-4,8,13,17-tetramethyl-20-oxoicosa-2,4,6,8,10,12,14,16,18-nonaenoic acid] | – | insoluble in water
isopropyl benzoic acid | 3.5 | –
CC(/C=C/C=C(C)/C=C/C(=O)O)=C\C=C\C=C(C)\C=C\C=C(C)\C=C\C(=O)O (stereo in doubt) [norbixin, (2E,4E,6E,8E,10E,12E,14E,16E,18E)-4,8,13,17-tetramethylicosa-2,4,6,8,10,12,14,16,18-nonaenedioic acid] | – | water-soluble
C=C(C)[C@@H]1CCC(C)=C[C@H]1c1c(O)cc(CCCCC)cc1O [CBD, cannabidiol] | – | insoluble
